Data: US5703056A, “Non-invasive imaging of gene transfer” (priority 1995, dated 1997)
Where two headings read alike, the source gives them in different places.

What was measured:
[1] = Calculated permeability surface area product (PS) of the cerebral capillaries; set-up: unit not given here; conditions: for PS+: calculated from published log P and MW: log(PS)=5.2+log(P·Dm); for PS*: calculated from measured log P and MW: log(PS)=5.2+log(P·Dm)
Excerpt: Passage of the nucleosides across the blood brain barrier (BBB) is an important factor to consider in the design of radiolabelled 2'-fluoro-nucleoside analogues for imaging HSV1-TK expression in the brain. […] It is known that brain capillary permeability for many compounds is related to their octanol/water partition coefficient (P) and molecular weight. [Levin, V. N. J. Med. Chem., 23: 682-4, 1980] Several authors have described a relationship between the brain capillary permeability and log P or log P·Dm, where Dm is a measure of diffusibility. […] [Dischino, D. D., Welch, M. J., Kilbourn, M. N., and Raichle, M. E., J. Nucl. Med., 24: 1030-8, 1983] […] Fenstermacher, J. D. Drug transfer across the blood brain barrier. In: Topics in Pharmaceutical Sciences. Ed.: Breimer, D. D., and Speiser, P. Amsterdam: Elsevier, pp. 143-54, 1983; Fenstermacher, J. D., and Rapoport, S. I. In: Handbook of Physiology. The Cardiovascular System. Microcirculation. Bethesda, Md.: Am. Physiol. Soc., sect. 2, Vol. IV, pt. 2, chapt. 21, p. 969-1000, 1984; Fenstermacher, J. D. In: Implications of Blood-Brain Barrier and Its Manipulation. Basic Science Aspects. Ed. by Neuwelt, E., New York: Plenum, Vol. 1, Chapt. 6, pp. 132-55, 1988]

physchem = type: physicochemical; conditions: octanol/water
Excerpt: It is known that brain capillary permeability for many compounds is related to their octanol/water partition coefficient (P) and molecular weight. [[…]. Med. […] [Dischino, […]., and […]. Nucl. […] […]. Drug transfer across the blood brain barrier. In: Topics in Pharmaceutical Sciences. Ed.: Breimer, D. D., and […]. […] […]., and Rapoport, S. I. In: Handbook of Physiology. The Cardiovascular System. Microcirculation. Bethesda, Md.: Am. Physiol. Soc., sect. 2, Vol. IV, […]. 969-1000, 1984; […]. In: Implications of Blood-Brain Barrier and Its Manipulation. Basic Science Aspects. Ed. by Neuwelt, E., New York: Plenum, Vol. 1, […]. 132-55, 1988] […] [Xu, […]., Knaus, E. E., and Wiebe, L. I. In: Advances in Radiopharmacology. […]., Snowdon, G. M., Boniface, G. R., Univ. of Wollongong Printing Service, Wollongong, Australia, pp. 283-298, 1990] […] […]).

[2] = cited from earlier work; for lipophilicity and blood-brain barrier permeability compared with FIAU: compared with FIAU (FAIU [sic]), Iwashina et al. 1988
RG2TK+ and RG2 tumors = assay: Tissue sampling of FIAU- and IUdR-derived radioactivity in i.c. and s.c. RG2TK+ and RG2 tumors; type: in vivo, rat; conditions: 24 h; for Sensitivity* (uptake in RG2TK+ tumor - uptake in RG2 tumor)/(HSV1TK mRNA/S28 RNA IOD in RG2TK+ cells): percent dose per gram
Protocol: Animal preparation and tumor inoculation Two male Fisher 344 rats weighing 250±20 g were anesthetized with a gas mixture consisting of 2% Isoflurane, 70% nitrous oxide and 30% oxygen. A 2% lidocaine gel was applied to the ears and the head was fixed with a stereotaxic device. After midline scalp incision, a burr hole was made through the skull 1 mm posterior and 3 mm lateral to the bregma. The tumor cell suspensions were aspirated into a 50 μl gas tight Hamilton syringe (Ga. 25) and attached to a stereotaxic device. The syringe needle was then inserted 6 mm deep into the caudate nucleus and the cell suspension (10^5 cells in 10 μl) was slowly injected over 2 minutes. RG2TK+ cells were injected into the left hemisphere, and RG2 cells were injected into the right hemisphere. Bone wax was applied to cover the skull defect and the scalp was closed with 4.0 silk suture. Subcutaneous inoculations (10^6 cells in 50 μl) were also performed (RG2TK+ cells into the left flank and RG2 cells into the right flank). After the procedure, the animals were marked and placed in standard cages with water and Rodent LabChow #5001 (Purina Mills, Inc.) ad libitum. Comparison of different "marker substrates" for identifying HSV1-TK expression in animals After 10 days of tumor growth, both animals received i.v. injections of [^123 I]-IUdR (400 uCi) and [^14 C]-FIAU (10 uCi). Radioactivity was allowed to clear from the body over 24 hours to reduce tissue background activity, predominantly due to radiolabelled iodide, the major metabolite of [^123 I]-IUdR. [Tjuvajev, J. G., Muraki, A., Ginos, J., Berk, J., Koutcher, J., Ballon, D., Beattie, B., Finn, R., and Biasberg, R., J. Nucl. Med., 34: 1152-62, 1993; Tjuvajev, J. G., Macapinlac, H. A., Daghighian, F., Scott, A. M., ginos, J. Z., Finn, R. D., Kothari, P., Desai, R., Zhang, Z., Beattie, B., Graham, M., Larson, S., and Blasberg, R. G., J. Nucl. Med., 35: 1407-17, 1994] The rats were killed at 24 hours under anesthesia; samples of tumor and adjacent tissue were disected and weighed, blood and plasma were obtained, and radioactivity was measured. Decay corrected ^123 I-radioactivity was assayed in a Packard AutoGamma 5550 Spectrometer; samples were stored in a refrigerator for 1 week to allow for ^123 I decay (>12 half lives) and ^14 C-radioactivity was measured in a Packard B1600 TriCarb beta spectrometer using external standard quench correction. Sample radioactivity was expressed as a percent of administered dose per gram of tissue of per unit volume of fluid.

HSV1-TK [3] = target: T1, HSV1-TK (Human alphaherpesvirus 1 strain 17, UniProt P0DTH5); assay: Single 120 minute paired accumulation of FIAU and IUdR by RG2TK+ and RG2 cells; type: cell-based, herpes simplex virus; conditions: Data from FIG. 6A
T1 sequence (P0DTH5 whole entry): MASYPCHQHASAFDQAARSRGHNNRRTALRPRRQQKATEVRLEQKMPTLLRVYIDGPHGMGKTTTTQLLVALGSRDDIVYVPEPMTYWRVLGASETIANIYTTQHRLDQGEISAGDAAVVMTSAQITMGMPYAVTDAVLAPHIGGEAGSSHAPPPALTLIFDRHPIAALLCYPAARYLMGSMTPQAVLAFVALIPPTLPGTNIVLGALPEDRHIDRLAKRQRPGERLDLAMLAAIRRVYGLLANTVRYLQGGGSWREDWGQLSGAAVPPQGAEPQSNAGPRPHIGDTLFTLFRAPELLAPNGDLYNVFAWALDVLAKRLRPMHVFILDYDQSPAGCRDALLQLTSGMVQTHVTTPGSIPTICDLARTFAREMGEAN
Protocol: The processing of cells and incubation medium was the same as that described above. A portion of the harvested cells was also processed for acid-insoluble (10% TCA) radioactivity. Decay corrected ^123 I-radioactivity was measured in a Packard AutoGamma 5550 Spectrometer. Samples were stored for 1 week to allow for ^123 I decay (12 half lives), and recounted afterwards in the Packard B1600 TriCarb beta spectrometer to determine ^3 H- and ^14 C-radioactivity.
All radioactivity measurements were expressed as a percent of administered dose per gram of tissue or per unit volume of fluid as described above.
(§1) Data analysis. […] These two related measures are useful to evaluate the intensity of the images (e.g., high "sensitivity") and the ability to differentiate between HSV1-TK and endogenous-TK in the images (e.g., high "selectivity"). The "selectivity" measure is not interpreted as a relative sensitivity (i.e., a value of 1 indicating equal sensitivity) of the substrate to HSV1-TK vs. endogenous-TK. […] They are intended for the direct comparison of substrates only.

HSV1-TK [4] = target: T1, HSV1-TK; assay: Accumulation of radiolabelled marker substrates in RG2TK+ transduced and RG2 wild-type cells, normalized to TdR; type: cell-based, herpes simplex virus
Protocol: Source of radiolabelled "marker substrates". […] No carrier-added 5-[^123 I]-deoxyuridine (IUdR) was prepared by reacting 2-deoxyuridine (UdR) with carrier-free ^123 I-labelled sodium iodide in an iodogen coated reaction vial.
Comparison of "marker substrates" for identifying HSV1-tk gene expression in tissue culture. […] Each of these substrates were developed for or used as an anti-viral agent; they are phosphorylated by HSV1-TK and can be radiolabelled for noninvasive imaging.
Wild-type (nontransduced) RG2 cells were studied as a reference control. […] The cells were dislodged from the Petri dishes with a soft scraper, poured into 15 ml conical tubes, centrifuged and the medium aspirated. The tubes were cut to facilitate removing cells; they were blotted, placed in pre-weighed vials, weighed and prepared for counting. Samples were assayed for ^3 H- and ^14 C-radioactivity using a Packard B1600 TriCarb beta spectrometer using dual-channel and external standard splash and quench correction techniques. The medium was also counted before and following incubation. The data was expressed as a harvested cell-to-medium concentration ratio (dpm/g cells.div.dpm/ml medium).
as §1

[5] = log P values published by Xu, et al.

SMILES	PS+ [1]	logP (physchem)	PS* [1]	also measured
CC(C)(N)C(=O)O [AIB]	0.00052	-2.48	–	–
O=C(O)CN(CCN(CC(=O)O)CC(=O)O)CCN(CC(=O)O)CC(=O)O [DTPA]	0.00009	-3.89	–	–
O=c1[nH]c(=O)n([C@@H]2O[C@H](CO)[C@@H](O)[C@@H]2F)cc1C=CI [FIVAU, 2'-fluoro-5-iodovinyl-1-β-D-arabinofuranosyl-uracil]	–	–	–	lipophilicity and blood-brain barrier permeability compared with FIAU [2]: higher lipophilicity and better permeability through the blood-brain barrier
O=c1[nH]c(=O)n([C@@H]2O[C@H](CO)[C@@H](O)[C@H]2F)cc1F [FFRU]	–	–	0.02	–
CCc1cn([C@@H]2O[C@H](CO)[C@@H](O)[C@@H]2F)c(=O)[nH]c1=O [FEAU, 2'-fluoro-5-ethyl-1-β-D-arabinofuranosyl-uracil]	0.31	–	–	lipophilicity and blood-brain barrier permeability compared with FIAU [2]: higher lipophilicity and better permeability through the blood-brain barrier
O=c1[nH]c(=O)n([C@H]2C[C@H](O)[C@@H](CO)O2)cc1/C=C/I [5-IVdU]	–	–	10.29	Log P* (physchem): 1.10
Cc1cn([C@H]2C[C@H](O)[C@@H](CO)O2)c(=O)[nH]c1=O [TdR, thymidine]	–	-0.8	–	Log P+ ([2]; octanol/water): -1.12
O=c1[nH]c(=O)n([C@@H]2O[C@H](CO)[C@@H](O)[C@H]2F)cc1I [FIRU, 2'-fluoro-5-iodo-1-β-D-ribofuranosyl-uracil]	–	–	0.45	–
O=c1[nH]c(=O)n([C@H]2C[C@H](O)[C@@H](CO)O2)cc1F [5-FUdR]	0.03	-1.52	0.03	Log P+ ([2]; octanol/water): -1.51
O=c1[nH]c(=O)n([C@@H]2O[C@H](CO)[C@@H](O)[C@H]2F)cc1C=CI [FIVRU, 2'-fluoro-5-iodovinyl-1-β-D-ribofuranosyl-uracil]	–	1.21	13.03	lipophilicity and blood-brain barrier permeability compared with FIAU [2]: higher lipophilicity and better permeability through the blood-brain barrier
O=c1ccn([C@H]2C[C@H](O)[C@@H](CO)O2)c(=O)[nH]1 [UdR, 2-deoxyuridine]	0.03	-0.131	0.05	Log P+ [2, 5]: -1.48
CCc1cn([C@@H]2O[C@H](CO)[C@@H](O)[C@H]2F)c(=O)[nH]c1=O [FERU, 5-ethyl-2'-fluoro-1-β-D-ribofuranosyl-uracil]	–	–	–	lipophilicity and blood-brain barrier permeability compared with FIAU [2]: higher lipophilicity and better permeability through the blood-brain barrier
O=c1[nH]c(=O)n([C@@H]2O[C@H](CO)[C@@H](O)[C@@H]2F)cc1F [FFAU, 2'-fluoro-5-fluoro-1-β-D-arabinofuranosyl-uracil]	–	-1.09	0.08	–
O=c1[nH]c(=O)n([C@H]2C[C@H](O)[C@@H](CO)O2)cc1I [IUdR, 5-iodo-2'-deoxy-uridine]	0.14	-0.089	0.11	Log P+ [2, 5]: -0.76; Selectivity+ Sensitivity*/(uptake in RG2 tumor) (RG2TK+ and RG2 tumors; RG2TK+/RG2 i.c. tumors): 0.009; Sensitivity* (uptake in RG2TK+ tumor - uptake in RG2 tumor)/(HSV1TK mRNA/S28 RNA IOD in RG2TK+ cells) (RG2TK+ and RG2 tumors; RG2TK+/RG2 i.c. tumors): 0.0001; Selectivity+ Sensitivity*/(uptake in RG2 tumor) (RG2TK+ and RG2 tumors; RG2TK+/RG2 s.c. tumors): 0.020; Sensitivity* (uptake in RG2TK+ tumor - uptake in RG2 tumor)/(HSV1TK mRNA/S28 RNA IOD in RG2TK+ cells) (RG2TK+ and RG2 tumors; RG2TK+/RG2 s.c. tumors): 0.0007; Selectivity+ Sensitivity*/(substrate/TdR) for RG2 (HSV1-TK [3]): 0.002; Sensitivity* Δ(substrate/TdR)/Δ(HSV1TK mRNA/S28 RNA IOD) (HSV1-TK [3]): 0.0011; Selectivity+ Sensitivity*/(substrate/TdR) for RG2 (HSV1-TK [4]; Data from FIG. 5): 0.006; Sensitivity* Δ(substrate/TdR)/Δ(HSV1TK mRNA/S28 RNA IOD) (HSV1-TK [4]; Data from FIG. 5): 0.0029; accumulation in bulk RG2TK+ cells relative to wild-type RG2 cells (HSV1-TK [4]; normalized to TdR, FIGS. 4 and 5B): 1.2 fold
